{"source": "paper PMC7403980", "about": "“Anti-Inflammatory Effects of the Novel PIM Kinase Inhibitor KMU-470 in RAW 264.7 Cells through the TLR4-NF-κB-NLRP3 Pathway” (International Journal of Molecular Sciences, 2020)", "assay_type_in_all_cases": "cell-based, murine", "key": {"MyD88": {"system": "MyD88", "test": "LPS-induced MyD88 protein expression in RAW 264.7 cells (Western blot)", "details": "KMU-470 0.5 and 1 μM 30 min, LPS 6 h", "protocol": "(§1) Figure 4 Inhibitory effect of KMU-470 on LPS-induced TLR4 and MyD88 protein expression in RAW 264.7 cells. (A,B) Cells were pre-treated with 0.5 and 1 μM of KMU-470 for 30 min prior to LPS treatment. Then, total protein was isolated after 6 h exposure to LPS. The protein expression level of TLR4 and MyD88 were assessed using Western blot analysis. (C,D) The relative optical densities of TLR4 and MyD88 bands were analyzed by the Image-J program. *** p < 0.001.\n(§2) RAW 264.7 cells were pre-treated with KMU-470 (0.5–1 μM/mL) for 24 h and stimulated with LPS (50 ng/mL) for 6 h. After stimulation, total cells were harvested, washed with PBS buffer, and then the total protein was extracted with a RIPA buffer (0.1 mM sodium orthovanadate, 137 mM NaCl, 15 mM EGTA, 0.1% Triton X-100, 25 mM MOPS, 15 mM MgCl2, 100 μM phenylmethylsulfonyl fluoride, and 20 μM leupeptin, adjusted to pH 7.2). The cell culture media supernatants were precipitated using TCA (trichloroacetic acid, protocol by Luis Sanchez 2001). A BCA protein assay kit (Thermo Scientific, Wilmington, USA) was used for the determination of the protein concentration. […] Immunoreactive proteins were detected using the ELC Western blot detection system kit (Millipore). Signal intensity was measured using the Chemi Image documentation system (Fusion Fx7, VILBER LOUTMAT). Protein expression levels were quantified using the Image J program."}, "JNK": {"system": "JNK", "test": "LPS-induced phosphorylation of JNK in RAW 264.7 cells (Western blot)", "details": "KMU-470 1 μM 24 h pre-treatment, LPS 50 ng/mL", "protocol": "(§3) Figure 5 Effect of KMU-470 on LPS-induced phosphorylation of MAPKs/ IKKs/ NF-κB in RAW 264.7 cells. (A) Cells were pre-treated with 1μM of KMU-470 for 24 h and stimulated with LPS (50 ng/mL) at the indicated times. (C) Cells were pre-treated with 0.5 and 1μM of KMU-470 for 30 min prior to LPS treatment. Total proteins were isolated after 6 h exposure to LPS (50 ng/mL). The protein expression level of MAPKs, p-IKKα/β, and p-NF-κB were assessed using Western blot analyses. (B,D) The relative optical densities of MAPKs, p-IKKα/β, and p-NF-κB bands were analyzed by the Image-J program. *** p < 0.001.\nas §2, with “7.2).” for “7.2). The cell culture media supernatants were precipitated using TCA (trichloroacetic acid, protocol by Luis Sanchez 2001). A BCA protein assay kit (Thermo Scientific, Wilmington, USA) was used for the determination of the protein concentration.”"}, "iNOS protein": {"system": "iNOS protein", "test": "LPS-induced iNOS protein expression in RAW 264.7 cells (Western blot)", "details": "KMU-470 0.5 and 1 μM 30 min, LPS 1 μg/mL 24 h", "protocol": "Figure 3 Inhibitory effect of KMU-470 on LPS-induced NO production and iNOS protein expression, and cell viability in RAW 264.7 cells. (A) The cells were pre-treated with KMU-470 at a concentration of 1 μM for 30 min and then treated with different concentrations of LPS for 24 h. Nitrite in the culture supernatant was collected and evaluated using Griess reagent. Absorbance was measured at 540 nm. *** p < 0.001, ** p < 0.01, * p < 0.05. (B) Cells are pre-treated with two different concentrations of KMU-470 (0.5 μM and 1 μM) for 30 min, followed by treatment with 1 μg/mL LPS for 24 h. β-actin was used as an internal control for Western blot analysis. (C) Image-J program was used to analyze the relative optical density of the iNOS band. (D) Cells were treated with various concentrations of KMU-470 for 24 h. […] (E) The cell proliferation rate was determined by cell count using a trypan blue exclusion assay. *p < 0.05 (F) Effect of KMU-470 on cell viability was measured by XTT assay. *** p < 0.001.\n(§4) RAW 264.7 cells were pre-treated with KMU-470 (0.5–1 μM/mL) for 24 h and stimulated with LPS (50 ng/mL) for 6 h. […] Immunoreactive proteins were detected using the ELC Western blot detection system kit (Millipore). Signal intensity was measured using the Chemi Image documentation system (Fusion Fx7, VILBER LOUTMAT). Protein expression levels were quantified using the Image J program."}, "ERK": {"system": "ERK", "test": "LPS-induced phosphorylation of ERK in RAW 264.7 cells (Western blot)", "details": "KMU-470 1 μM 24 h pre-treatment, LPS 50 ng/mL", "protocol": "as §3\nas §2, with “7.2).” for “7.2). The cell culture media supernatants were precipitated using TCA (trichloroacetic acid, protocol by Luis Sanchez 2001). A BCA protein assay kit (Thermo Scientific, Wilmington, USA) was used for the determination of the protein concentration.”"}, "pro-caspase-1": {"system": "pro-caspase-1", "test": "Pro-caspase-1 protein expression in LPS-treated RAW 264.7 cells (Western blot)", "details": "KMU-470 0.1, 0.5, 1 μM 30 min, LPS 50 ng/mL 6 h", "protocol": "Figure 6 Inhibitory effect of KMU-470 on LPS-induced up-regulation of pro-inflammatory cytokines and activation of NLRP3 inflammasome in RAW 264.7 cells. (A–C) Cells were treated with KMU-470 for 30 min and stimulated with LPS 50 ng/mL for 6 h. The levels of IL-1β, TNF-α, and IL-6 were determined using real time PCR. *** p < 0.001, *p < 0.05. (D) Cells were pre-treated with 0.1, 0.5, and 1 μM of KMU-470 for 30 min and treated with LPS 50 ng/mL for 6 h, respectively. Whole cell lysates were isolated and used to measure the protein expression levels of pro-IL-1β and β-actin by Western blot analysis. (E) Cells were pre-treated with 0.1, 0.5, and 1 μM of KMU-470 for 30 min and treated with LPS 50 ng/mL for 6 h, respectively. Whole cell lysates were isolated and used to measure the protein expression levels of […], ASC, pro-caspase-1, pro-IL-1β, and β-actin by Western blot analysis.\nas §4"}, "TLR4": {"system": "TLR4", "test": "LPS-induced TLR4 protein expression in RAW 264.7 cells (Western blot)", "details": "KMU-470 0.5 and 1 μM 30 min, LPS 6 h", "protocol": "as §1, §2"}, "NO production": {"system": "NO production", "test": "LPS-induced NO production in RAW 264.7 cells (Griess reagent)", "details": "KMU-470 1 μM 30 min pre-treatment, LPS 50, 200, 1000 ng/mL 24 h", "protocol": "Figure 3 Inhibitory effect of KMU-470 on LPS-induced NO production and iNOS protein expression, and cell viability in RAW 264.7 cells. (A) The cells were pre-treated with KMU-470 at a concentration of 1 μM for 30 min and then treated with different concentrations of LPS for 24 h. Nitrite in the culture supernatant was collected and evaluated using Griess reagent. Absorbance was measured at 540 nm. *** p < 0.001, ** p < 0.01, * p < 0.05. (B) Cells are pre-treated with two different concentrations of KMU-470 (0.5 μM and 1 μM) for 30 min, followed by treatment with 1 μg/mL LPS for 24 h. β-actin was used as an internal control for Western blot analysis. (C) Image-J program was used to analyze the relative optical density of the iNOS band. (D) Cells were treated with various concentrations of KMU-470 for 24 h. The effects of KMU-470 on cell proliferation and morphological changes were observed by microscopy (X100). (E) The cell proliferation rate was determined by cell count using a trypan blue exclusion assay. *p < 0.05 (F) Effect of KMU-470 on cell viability was measured by XTT assay. *** p < 0.001.\nThe amount of nitrite accumulated in the cell culture medium was measured directly using a Griess reagent as an indicator of NO production. […] The OD was measured by spectrophotometer (BMG Labtech, Ortenberg, Germany) at 540 nm. […]"}}}
{"smiles": "CN(C)CCNc1cncc(-c2ccc3c(c2)/C(=C/c2cnc[nH]2)C(=O)N3)n1", "note": "[KMU-470, (Z)-3-((1H-Imidazol-5-yl)methylene)-5-(6-((2-(dimethylamino)ethyl)amino)pyrazin-2-yl)indolin-2-one]", "values": [{"measurement": "Up-regulation of MyD88 protein by LPS", "setting": "MyD88", "value": "suppressed"}, {"measurement": "LPS-induced phosphorylation of JNK", "setting": "JNK", "value": "significantly inhibited"}, {"measurement": "LPS-induced up-regulation of iNOS protein", "setting": "iNOS protein", "value": "attenuated"}, {"measurement": "LPS-induced phosphorylation of ERK", "setting": "ERK", "value": "significantly inhibited"}, {"measurement": "Pro-caspase-1 expression", "setting": "pro-caspase-1", "value": "not changed"}, {"measurement": "Up-regulation of TLR4 protein by LPS", "setting": "TLR4", "value": "suppressed"}, {"measurement": "LPS-induced NO production", "setting": "NO production", "value": "suppressed"}]}
